{
  "source": "paper PMC4075989",
  "about": "(Biochemistry, 2014)",
  "key": {"Serum stability test": {"test": "Serum stability test", "assay_type": "in vitro ADME", "settings": "human, 25% human serum (supernatant after centrifugation)"}, "[1]": {"test_system": "HEK293, MCF-7, A549, H1650, and H1299", "test": "MTT cytotoxicity assay", "assay_type": "cell-based, human", "settings": "triplicates"}, "mammalian cells": {"test_system": "mammalian cells", "settings": "cited from earlier work"}, "[2]": {"test_system": "glucocorticoid receptor (C638G)-GFP fusion (GR-GFP) in HeLa cells", "test": "GR-GFP translocation assay"}},
  "note": "Where a SMILES comes first, the peptide text is derived from it. [ ]: non-standard residue; d: D form. 2Nal = N[C@@H](Cc1ccc2ccccc2c1)C(=O)O",
  "data": [
    {"smiles": "N=C(N)NCCC[C@H](NC(=O)[C@H](CCCNC(=N)N)NC(=O)[C@H](CCCNC(=N)N)NC(=O)[C@H](CCC(N)=O)NC(=O)[C@H](CCCNC(=N)N)NC(=O)[C@H](CCCNC(=N)N)NC(=O)[C@H](CCCCN)NC(=O)[C@H](CCCCN)NC(=O)[C@H](CCCNC(=N)N)NC(=O)CNC(=O)[C@@H](N)Cc1ccc(O)cc1)C(=O)O", "note": "[Tat]", "values": [
      {"measurement": "half-life", "setting": "Serum stability test", "result": "~30", "unit": "min"}
    ]},
    {"smiles": "N=C(N)NCCC[C@@H]1NC(=O)[C@H](CCCNC(=N)N)NC(=O)[C@H](CCCNC(=N)N)NC(=O)[C@H](Cc2ccc3ccccc3c2)NC(=O)[C@H](Cc2ccccc2)NC(=O)[C@H](CCC(N)=O)NC(=O)[C@H](CCCNC(=N)N)NC1=O", "note": "[cFΦR4] (cyclo(F[2Nal]RRRRQ))", "values": [
      {"measurement": "growth inhibition after 72 h", "setting": "[1]; 50 μM, 72 h", "result": "up to 20%"},
      {"measurement": "growth inhibition after 24 or 48 h", "setting": "[1]; up to 50 μM, any of five human cell lines", "result": "no significant growth inhibition"},
      {"measurement": "efficiency of entering the cytoplasm and nucleus relative to nonaarginine (R9)", "setting": "mammalian cells", "result": "2–5 fold"},
      {"measurement": "remaining at 24 h, 5 µM", "setting": "Serum stability test", "result": "> 70", "unit": "%"}
    ]},
    {"smiles": "C[C@@H]1C[C@H]2[C@@H]3CCC4=CC(=O)C=C[C@]4(C)[C@@]3(F)[C@@H](O)C[C@]2(C)[C@@]1(O)C(=O)CO", "note": "[Dex, dexamethasone]", "values": [
      {"measurement": "effect of Rab5(Q79L) overexpression on TR", "setting": "[2]", "result": "no effect"}
    ]},
    {"smiles": "N=C(N)NCCC[C@H](NC(=O)[C@H](CCCNC(=N)N)NC(=O)[C@H](CCCNC(=N)N)NC(=O)[C@H](CCCNC(=N)N)NC(=O)[C@H](CCCNC(=N)N)NC(=O)[C@H](CCCNC(=N)N)NC(=O)[C@H](CCCNC(=N)N)NC(=O)[C@H](CCCNC(=N)N)NC(=O)[C@@H](N)CCCNC(=N)N)C(=O)O", "note": "[R9]", "values": [
      {"measurement": "half-life", "setting": "Serum stability test", "result": "~30", "unit": "min"}
    ]}
  ]
}
